Test results taken from patent publication US20230114241A1, “METHODS OF TREATING EPILEPSY USING THE SAME” (Trevena, Inc., priority 2019, published 2023).

Tests used:
[1] = molecular target: T1, human sphingosine-1-phosphate receptor 1 (S1P1) (Homo sapiens, UniProt P21453); assay: β-Arrestin2 recruitment assay (PathHunter), S1P1 CHO-K1 cells; format: cell-based
Method in brief: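 CHO-K1 cells co-expressing EA-β-arrestin2 and ProLink-tagged human S1P1 plated overnight, then stimulated 60 min at 37 °C. Enzyme-fragment complementation (β-galactosidase) detected after 1 h at room temperature by luminescence; values normalized to fingolimod.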
Target sequence in this assay (P21453 whole entry, the tested form may be a part): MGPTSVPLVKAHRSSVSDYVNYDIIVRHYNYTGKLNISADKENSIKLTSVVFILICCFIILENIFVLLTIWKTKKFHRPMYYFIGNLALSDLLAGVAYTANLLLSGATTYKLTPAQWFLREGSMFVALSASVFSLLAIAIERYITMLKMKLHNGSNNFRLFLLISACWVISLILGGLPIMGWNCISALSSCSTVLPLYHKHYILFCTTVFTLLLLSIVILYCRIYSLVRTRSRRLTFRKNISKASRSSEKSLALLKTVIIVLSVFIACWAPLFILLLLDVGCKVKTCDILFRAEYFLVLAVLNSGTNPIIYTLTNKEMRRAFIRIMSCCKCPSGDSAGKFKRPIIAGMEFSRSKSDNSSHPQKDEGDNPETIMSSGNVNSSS
Target sequence in this assay (P32121 whole entry partner, the tested form may be a part): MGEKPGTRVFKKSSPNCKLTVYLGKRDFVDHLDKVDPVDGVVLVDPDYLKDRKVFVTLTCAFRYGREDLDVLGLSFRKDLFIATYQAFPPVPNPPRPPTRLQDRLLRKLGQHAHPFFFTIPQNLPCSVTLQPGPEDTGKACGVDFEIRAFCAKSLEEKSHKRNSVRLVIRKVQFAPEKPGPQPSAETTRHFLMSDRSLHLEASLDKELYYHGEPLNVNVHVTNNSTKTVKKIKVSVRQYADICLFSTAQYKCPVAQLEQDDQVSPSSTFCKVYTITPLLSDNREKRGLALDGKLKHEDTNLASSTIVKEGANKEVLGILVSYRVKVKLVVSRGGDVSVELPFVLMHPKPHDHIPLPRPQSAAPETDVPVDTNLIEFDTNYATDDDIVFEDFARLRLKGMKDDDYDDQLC

[2] = molecular target: T1, human sphingosine-1-phosphate receptor 1 (S1P1); assay: Inhibition of cAMP production (HTRF cAMP HiRange), S1P1 CHO-K1 cells; format: cell-based
Method in brief: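 CHO-K1 cells co-expressing human S1P1 (C-terminal ProLink tag) and EA-β-arrestin2, plated overnight; after 30 min compound incubation at 37 °C, intracellular cAMP measured by HTRF TR-FRET following 1 h at room temperature. Values normalized to fingolimod.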
Target sequence in this assay (P21453 whole entry, the tested form may be a part): as the sequence (P21453 whole entry, the tested form may be a part) above

[3] = CHO-K1, efficacy normalized to maximum efficacy of fingolimod, read-out: hS1P1 B-arrestin2 SPAN
[4] = β-arrestin2 recruitment, S1P1, read-out: hS1P1 B-arrestin2 pEC50 (converted)
[5] = CHO-K1, efficacy normalized to maximum efficacy of fingolimod, read-out: hS1P1 CAMP SPAN
[6] = inhibition of cAMP production, S1P1, read-out: hS1P1 CAMP pEC50 (converted)

Structure (SMILES) | Emax [1, 3] [%] | EC50 [1, 4] [µM] | Emax [2, 5] [%] | EC50 [2, 6] [µM] | EC50 [1] [µM] | Emax ([1]; CHO-K1, read-out: hS1P1 B-arrestin2 SPAN) [%] | EC50 [2] [µM] | Emax ([2]; CHO-K1, read-out: hS1P1 CAMP SPAN) [%]
Cn1ccnc1-c1noc(-c2ccc3c(c2)nnn3CC(C)(C)O)n1 [Compound 567, 2-methyl-1-(5-[3-(1-methyl-1H-imidazol-2-yl)-1,2,4-oxadiazol-5-yl]-1H-1,2,3-benzotriazol-1-yl}propan-2-ol] | < 75 | > 10 | > 75 | > 0.316 |  |  |  | 
CCC1(CC)CC(=O)c2cc(-c3nc(-c4ccc(NS(C)(=O)=O)cc4OC)no3)ccc2O1 [Compound 568, N-{4-[5-(2,2-diethyl-4-oxo-3,4-dihydro-2H-1-benzopyran-6-yl)-1,2,4-oxadiazol-3-yl]-3-methoxyphenyl}methane-sulfonamide] | > 75 | < 10 | > 75 | < 0.316 |  |  |  | 
Cc1nc2cc(-c3nc(-c4ccc5c(c4)nnn5C(C)C)no3)ccc2[nH]1 [Compound 571, 5-[5-(2-methyl-1H-1,3-benzodiazol-5-yl)-1,2,4-oxadiazol-3-yl]-1-(propan-2-yl)-1H-1,2,3-benzotriazole] | < 75 | < 10 | > 75 | < 0.316 |  |  |  | 
CC(C)Nc1ccc(-c2nnc(-c3ccc4c(c3)ncn4C)o2)cc1C#N [Compound 572, 5-[5-(1-methyl-1H-1,3-benzodiazol-5-yl)-1,3,4-oxadiazol-2-yl]-2-[(propan-2-yl)amino]benzonitrile] | > 75 | > 10 | < 75 | > 0.316 |  |  |  | 
Cn1cnc2cc(-c3nnc(-c4ccc(NCC(F)F)c(C#N)c4)o3)ccc21 [Compound 573, 2-[(2,2-difluoro-ethyl)amino]-5-[5-(1-methyl-1H-1,3-benzodiazol-5-yl)-1,3,4-oxadiazol-2-yl]benzonitrile] | < 75 | > 10 | < 75 | > 0.316 |  |  |  | 
CC(C)Nc1ccc(-c2nnc(-c3ccc4c(c3)ncn4CCO)o2)cc1C#N [Compound 574, 5-{5-[1-(2-hydroxy-ethyl)-1H-1,3-benzodiazol-5-yl]-1,3,4-oxadiazol-2-yl}-2-[(propan-2-yl)amino]benzonitrile] | > 75 | > 10 | > 75 | > 0.316 |  |  |  | 
N#Cc1cc(-c2nnc(-c3ccc4c(c3)ncn4CCO)o2)ccc1NCC(F)F [Compound 578, 2-[(2,2-difluoro-ethyl)amino]-5-{5-[1-(2-hydroxyethyl)-1H-1,3-benzodiazol-5-yl]-1,3,4-oxadiazol-2-yl}benzonitrile] | < 75 | > 10 | > 75 | > 0.316 |  |  |  | 
CC(C)Nc1ccc(-c2nnc(-c3ccc4ncn(C)c4c3)o2)cc1C#N [Compound 579, 5-[5-(1-methyl-1H-1,3-benzodiazol-6-yl)-1,3,4-oxadiazol-2-yl]-2-[(propan-2-yl)amino]benzonitrile] | > 75 | < 10 | > 75 | < 0.316 |  |  |  | 
Cn1cnc2ccc(-c3nnc(-c4ccc(NCC(F)F)c(C#N)c4)o3)cc21 [Compound 580, 2-[(2,2-difluoro-ethyl)amino]-5-[5-(1-methyl-1H-1,3-benzodiazol-6-yl)-1,3,4-oxadiazol-2-yl]benzonitrile] | > 75 | < 10 | > 75 | < 0.316 |  |  |  | 
COc1cc(NC(C)=O)ccc1-c1nc(-c2ccncc2)no1 [Compound 582, N-{3-methoxy-4-[3-(pyridin-4-yl)-1,2,4-oxadiazol-5-yl]phenyl}acetamide] | < 75 | > 10 | > 75 | > 0.316 |  |  |  | 
CCOP(=O)(Cc1ccc(-c2noc(-c3ccc4c(c3)nnn4C(C)C)n2)cc1)OCC [Compound 583, diethyl[(4-{5-[1-(propan-2-yl)-1H-1,2,3-benzotriazol-5-yl]-1,2,4-oxadiazol-3-yl}phenyl)methyl]phosphonate] |  |  |  |  | > 10 | < 75 | > 0.316 | < 75

Further lines, with some results ahead:

Emax [1, 3] [%] | EC50 [1, 4] [µM] | Emax [2, 5] [%] | EC50 [2, 6] [µM] | Structure (SMILES) | EC50 [1] [µM] | Emax ([1]; CHO-K1, read-out: hS1P1 B-arrestin2 SPAN) [%] | EC50 [2] [µM] | Emax ([2]; CHO-K1, read-out: hS1P1 CAMP SPAN) [%]
> 75 | < 10 | > 75 | < 0.316 | CC(C)Nc1ccc(-c2nnc(-c3cccc4[nH]cnc34)o2)cc1C#N [Compound 585, 5-[5-(1H-1,3-benzo-diazol-4-yl)-1,3,4-oxadiazol-2-yl]-2-[(propan-2-yl)amino]benzonitrile] |  |  |  | 
> 75 | < 10 | > 75 | < 0.316 | N#Cc1cc(-c2nnc(-c3cccc4[nH]cnc34)o2)ccc1NCC(F)F [Compound 586, 5-[5-(1H-1,3-benzodiazol-4-yl)-1,3,4-oxadiazol-2-yl]-2-[(2,2-difluoro-ethyl)amino]benzonitrile] |  |  |  | 
< 75 | > 10 | < 75 | > 0.316 | CCC1CC(=O)c2ccc(-c3nc(-c4cccnc4)no3)cc2O1 (stereo not shown) [Compound 588, 2-ethyl-7-[3-(pyridin-3-yl)-1,2,4-oxadiazol-5-yl]-3,4-dihydro-2H-1-benzopyran-4-one] |  |  |  | 
> 75 | > 10 | < 75 | > 0.316 | CCC1CC(=O)c2ccc(-c3nc(-c4ccncc4)no3)cc2O1 (stereo not shown) [Compound 589, 2-ethyl-7-[3-(pyridin-4-yl)-1,2,4-oxadiazol-5-yl]-3,4-dihydro-2H-1-benzopyran-4-one] |  |  |  | 
< 75 | > 10 | < 75 | > 0.316 | CC(C)(O)Cn1nnc2cc(-c3nc(-c4ccc5nonc5c4)no3)ccc21 [Compound 590, 1-{5-[3-(2,1,3-benzoxa-diazol-5-yl)-1,2,4-oxadiazol-5-yl]-1H-1,2,3-benzotriazol-1-yl}-2-methylpropan-2-ol] |  |  |  | 
> 75 | < 10 | < 75 | < 0.316 | CCC1(CC)CC(=O)c2cc(-c3nc(-c4cccs4)no3)ccc2N1 [Compound 591, 2,2-diethyl-6-(3-(thiophen-2-yl)-1,2,4-oxadiazol-5-yl)-2,3-dihydroquinolin-4(1H)-one] |  |  |  | 
> 75 | > 10 | < 75 | > 0.316 | CCC1(CC)CC(=O)c2cc(-c3nc(-c4ccnc(C(=O)NC)c4)no3)ccc2O1 [Compound 592, 4-(5-(2,2-diethyl-4-oxochroman-6-yl)-1,2,4-oxadiazol-3-yl)-N-methylpicolinamide] |  |  |  | 
> 75 | < 10 | > 75 | < 0.316 | CCC1(CC)CC(=O)c2cc(-c3ncc(-c4ccccc4OC)cn3)ccc2O1 [Compound 594, 2,2-diethyl-6-(5-(2-methoxyphenyl)pyrimidin-2-yl)chroman-4-one] |  |  |  | 
> 75 | < 10 | > 75 | < 0.316 | CC(C)Oc1ccc(-c2ncc(-c3ccc4c(c3)nnn4C(C)C)cn2)cc1C#N [Compound 595, 2-isopropoxy-5-(5-(1-isopropyl-1H-benzo[d][1,2,3]triazol-5-yl)pyrimidin-2-yl)benzonilrile] |  |  |  | 
> 75 | < 10 | < 75 | < 0.316 | CC(C)Nc1ccc(-c2ncc(-c3ccc4c(c3)nnn4C(C)C)cn2)cc1C#N [Compound 596, 5-(5-(1-isopropyl-1H-benzo[d][1,2,3]triazol-5-yl)pyrimidin-2-yl)-2-(isopropyl-amino)benzonitrile] |  |  |  | 
> 75 | < 10 | > 75 | < 0.316 | Cc1cnccc1-c1noc(-c2ccc3c(c2)nnn3CC(C)(C)O)n1 [Compound 597, 2-methyl-1-{5-[3-(3-methylpyridin-4-yl)-1,2,4-oxadiazol-5-yl]-1H-1,2,3-benzotriazol-1-yl}propan-2-ol] |  |  |  | 
< 75 | < 10 | > 75 | > 0.316 | Cc1ccccc1-c1cc(-c2ccc3c(c2)nnn3C(C)C)c[nH]1 [Compound 601, 5-[5-(2-methylphenyl)-1H-pyrrol-3-yl]-1-(propan-2-yl)-1H-1,2,3-benzotriazole] |  |  |  | 
> 75 | > 10 | < 75 | > 0.316 | CC(C)n1nnc2cc(-c3noc(-c4ncccc4O)n3)ccc21 [Compound 602, 2-{3-[1-(propan-2-yl)-1H-1,2,3-benzo-triazol-5-yl]-1,2,4-oxadiazol-5-yl}pyridin-3-ol] |  |  |  | 
> 75 | < 10 | > 75 | < 0.316 | CCC1(CC)CC(=O)c2cc(-c3nc(-c4cncc(S(N)(=O)=O)c4)no3)ccc2O1 [Compound 603, 5-(5-(2,2-diethyl-4-oxochroman-6-yl)-1,2,4-oxadiazol-3-yl)pyridine-3-sulfonamide] |  |  |  | 
> 75 | < 10 | > 75 | < 0.316 | CCC1(CC)CC(=O)c2cc(-c3nc(-c4sccc4OC)no3)ccc2O1 [Compound 604, 2,2-diethyl-6-(3-(3-methoxythiophen-2-yl)-1,2,4-oxadiazol-5-yl)chroman-4-one] |  |  |  | 
> 75 | < 10 | > 75 | < 0.316 | CC(C)n1nnc2cc(-c3noc(-c4cccc5c4CCC5=O)n3)ccc21 [Compound 608, 4-{3-[1-(propan-2-yl)-1H-1,2,3-benzo-triazol-5-yl]-1,2,4-oxadiazol-5-yl}-2,3-dihydro-1H-inden-1-one] |  |  |  | 
< 75 | > 10 | < 75 | < 0.316 | Cc1ccccc1-c1nc(-c2ccc3c(c2)nnn3C(C)(C)CO)no1 [Compound 609, 2-methyl-2-(5-(5-(o-tolyl)-1,2,4-oxadiazol-3-yl)-1H-benzo[d] [1,2,3]triazol-1-yl)propan-1-ol] |  |  |  | 
